From ChEMBL document CHEMBL1772986, “Scaffold-hopping strategy: synthesis and biological evaluation of 5,6-fused bicyclic heteroaromatics to identify orally bioavailable anticancer agents” (J Med Chem, 2011) come the findings set out here.

In brackets after ≈: the same amount, converted by molar mass. Activity calls are given as the source filed them. The calls are words filed in the database; no cut-off is given here.

By IC50 is commonly meant the point on the concentration scale where inhibition reaches its midpoint. Low readings indicate greater potency in that assay, high ones weaker potency in that assay. Usually AUC stands for the area under the concentration-time curve, a measure of exposure. A higher AUC goes with high exposure. As a reminder, the Cmax is the peak of the concentration-time curve. One may read the Vdss as the apparent volume that relates the amount in the body to the concentration in plasma or blood. Low readings indicate confinement near the circulation, high ones extensive tissue distribution. In general, solubility refers to the concentration that dissolves in the medium under given conditions. Low values mean little dissolved substance, high ones much dissolved substance. A word on the bioavailability: it is the share of a dose that reaches the circulation, judged against a reference dose that is usually intravenous. For orientation: Tmax means the time at which the peak concentration occurs. In general, half-life refers to how long it takes for the measured level to halve. Low values mean fast loss, high ones slow loss.

The test system of one data set is KB. Briefly: Cytotoxicity against human KB cells after 72 hrs by methylene blue dye assay. The format is functional, cell-based.
The subject of another data set is MKN-45. Kind of data set: Cytotoxicity against human MKN45 cells after 72 hrs by methylene blue dye assay. As to conditions: MKN-45, 72 h. The format is functional, cell-based.
A short description of data set [1]: Inhibition of tubulin polymerization measured every 30 seconds for 30 mins.
For data set [2], the system named is Rattus norvegicus. Kind of data set: Half life in Sprague-Dawley rat plasma at 5 mg/kg, iv. The format is ADME, organism-based. Also noted: dose 5 mg/kg, route intravenous. As to conditions: in vivo.
Data set [3] has as its system Rattus norvegicus. Kind of data set: AUC in Sprague-Dawley rat at 5 mg/kg, iv. The format is ADME, organism-based, Plasma. Also noted: dose 5 mg/kg, route intravenous. As to conditions: in vivo.
Data set [4] is described as follows: Cmax in Sprague-Dawley rat at 20 mg/kg, po. The format is ADME, organism-based. Also noted: dose 20 mg/kg, route oral. As to conditions: in vivo.
Data set [5] deals with Rattus norvegicus. Kind of data set: Volume of distribution at steady state in Sprague-Dawley rat at 5 mg/kg, iv. The class given is ADME, organism-based. Further details: dose 5 mg/kg, route intravenous. To be noted: in vivo.
Data set [6] can be described thus: Aqueous solubility in distilled water at 2 mg after 24 hrs. The class given is physicochemical.
The nature of data set [7]: Oral bioavailability in Sprague-Dawley rat at 20 mg/kg. The format is ADME, organism-based. To be noted: in vivo.
A short description of data set [8]: Tmax in Sprague-Dawley rat at 20 mg/kg, po. The class given is ADME, organism-based. Also noted: dose 20 mg/kg, route oral. To be noted: in vivo.
The nature of data set [9]: AUC in Sprague-Dawley rat at 20 mg/kg, po. The class given is ADME, organism-based. Also noted: dose 20 mg/kg, route oral. As to conditions: plasma.
Data set [10] in a line: Half life in Sprague-Dawley rat plasma at 20 mg/kg, po. Also noted: dose 20 mg/kg, route oral. The format is ADME, organism-based.
Data set [11] can be described thus: Solubility of the compound in phosphate buffer at 2 mg at pH 7.4 after 24 hrs. The format is physicochemical.
Data set [12] can be described thus: Metabolic stability in human liver microsomes assessed as compound remaining at 1 uM after 30 mins. To be noted: read-out: Stability. The class given is ADME, Microsome.

Regarding `COc1ccn2c(C(=O)c3cc(OC)c(OC)c(OC)c3)c(C)cc2c1`, the concentration for half-maximal inhibition (IC50) in the data set with KB was greater than 1000 nM; with MKN-45 it was 354 nM.
For `COc1cc(C(=O)c2c[nH]c3nc(C)ccc23)cc(OC)c1OC` [listing 1 of 2 here], the inhibition result in data set [1] was “Active”.
For `COc1ccc2c(C(=O)c3cc(OC)c(OC)c(OC)c3)n[nH]c2c1`, the IC50 with KB is 70 nM; in the data set with MKN-45 it was 95 nM.
On to `COc1ccc2c(C(=O)c3cc(OC)c(OC)c(OC)c3)c[nH]c2c1`, for which the t1/2 with Rattus norvegicus [2] stood at 54 min. For the same compound, the area under the curve (AUC) was found to be 2712 ng·h/mL in the data set with Rattus norvegicus [3] and 1310 ng·h/mL in [9]. For the same compound, in [4], the Cmax stood at 179 ng/mL. For the same compound, the results for the concentration for half-maximal inhibition (IC50) in the data set on KB and with MKN-45 were 6 nM and 5 nM, respectively. This compound also yielded a Vdss in the data set with Rattus norvegicus [5] of 1.6 L/kg. The results for the solubility at 24 h in data set [6] and in data set [11] were 0.9 µg/mL (≈ 2.64 µM) and 0.61 µg/mL (≈ 1.79 µM), respectively. The compound further displayed a bioavailability in data set [7] of 9.7%. Further, the Tmax in data set [8] stood at 4 h. In data set [10], the half-life was 168 min. Further, the remaining at 0.5 h, 1 µM in data set [12] was determined as 54.1%.
As for `COc1ccn2c(C(=O)c3cc(OC)c(OC)c(OC)c3)cnc2c1`, the IC50 in the data set with KB was found to be 770 nM; in the data set on MKN-45, 730 nM.
With `COc1ccc2c(C(=O)c3cc(OC)c(OC)c(OC)c3)c[nH]c2n1`, the values for the IC50 in the data set on KB and in the data set with MKN-45 were 20 nM and 16 nM, respectively. For the same compound, the values for the solubility at 24 h in [6] and in data set [11] were less than 2 µg/mL and less than 1 µg/mL, respectively. The remaining at 0.5 h, 1 µM in [12] came out at 88.3%.
Take `COc1ccc2c(C(=O)c3cc(OC)c(OC)c(OC)c3)ccn2c1`: the results for the IC50 in the data set with KB and with MKN-45 were 284 nM and 80 nM, respectively.
Turning to `COc1cc(C(=O)c2c[nH]c3nc(C)ccc23)cc(OC)c1OC.Cl`, the solubility at 24 h in [6] is 91.3 µg/mL; in data set [11], 79.6 µg/mL.
In the data set with Rattus norvegicus [2], `COc1cc(C(=O)c2c[nH]c3nc(C)ccc23)cc(OC)c1OC` [listing 2 of 2 here] showed a t1/2 of 24 min. For the same compound, the AUC is 2653 ng·h/mL with Rattus norvegicus [3] and 4640 ng·h/mL in data set [9]. The highest level in [4] (Cmax) was 3750 ng/mL. Besides, the volume of distribution (Vdss) in the data set with Rattus norvegicus [5] came out at 0.7 L/kg. Besides, the solubility at 24 h turned out to be 14.3 µg/mL (≈ 43.8 µM) in data set [6] and 8.3 µg/mL (≈ 25.4 µM) in [11]. This compound returned a bioavailability in data set [7] of 35%. The time to peak (Tmax) in data set [8] was determined as 0.5 h. The compound further had a half-life in data set [10] of 78 min.
With `COc1ccc2c(C(=O)c3cc(OC)c(OC)c(OC)c3)c(C)cn2c1`, the results for the half-maximal inhibitory concentration (IC50) in the data set on KB and in the data set with MKN-45 were 31 nM and 26 nM, respectively. Besides, the remaining at 0.5 h, 1 µM in data set [12] is 35.4%. For the same compound, the inhibition entry in [1] is “Active”.
As for `CCOc1ccc2c(C(=O)c3cc(OC)c(OC)c(OC)c3)c[nH]c2n1`, the 50% inhibitory concentration (IC50) stood at 12 nM in the data set on KB and 14 nM with MKN-45. Also, the figures for the solubility at 24 h in data set [6] and in data set [11] were less than 2 µg/mL and less than 1 µg/mL, respectively. For the same compound, the remaining at 0.5 h, 1 µM in data set [12] was determined as 96.4%. Besides, the inhibition entry in [1] is “Active”.
Regarding `COc1ncc2c(C(=O)c3cc(OC)c(OC)c(OC)c3)c[nH]c2n1`, the IC50 with KB came out at 284 nM; in the data set on MKN-45, 80 nM.
Consider `COc1ccc2c(C(=O)c3cc(OC)c(OC)c(OC)c3)cnn2n1`, for which the concentration for half-maximal inhibition (IC50) in the data set on KB and in the data set on MKN-45 was greater than 1000 nM in each case. Further, the remaining at 0.5 h, 1 µM in data set [12] was determined as 99.6%.
